From US20240002846A1, “COMPOSITIONS AND METHODS FOR THE DIAGNOSIS AND TREATMENT OF ITCH” (Duke University, priority 2020, published 2024)
Entries after “also recorded” stand apart in the source; their conditions may differ.

Experiments:
[1] = biological target: T1, hTRPV4-R746G (Homo sapiens, UniProt Q9HBA0, R746G); assay: Inside-out patch-clamp, hTRPV4-R746G; assay type: biochemical; settings: 5 μM LPC 18:1
T1 construct: expressed in transfected cells; host or cells: HEK293
Method: Cell culture and transfection. HEK293 cells (ATCC® CRL-1573) were cultured on poly-D-lysine coated coverslips in 24-well plate containing DMEM media with high-Glucose (Gibco, Gaithersburg, MD) supplemented with 10% fetal bovine serum (FBS, HyClone Laboratories, Logan, UT) and 100 U/mL of penicillin/streptomycin (Gibco, Gaithersburg, MD). Cell cultures were maintained with 5% of CO2 in a humidified incubator at 37° C. HEK cells were transfected with rat or human wild type or mutant TRPV4 channels with EGFP or YFP coupled to their C-termini (1.5 μg of plasmid for excised patch clamp and Ca^2+ imaging and 200 ng for single-channel experiments). […]
Electrophysiology. Currents were recorded using the inside-out configuration of the patch-clamp technique (Hamill et al. Pflugers Arch. 1981, 391, 85-100). […] Mean current values in response to GSK1016790A or LPC 18:1 were measured after channel activation had reached the steady-state (˜3 min). […] Currents were low-pass filtered at 2 kHz and sampled at 10 kHz with an EPC 10 amplifier (HEKA Elektronik) and were plotted and analyzed with Igor Pro (Wavemetrics Inc.).

[2] = system: pERK expression; assay: pERK Western blot in cultured mouse keratinocytes; assay type: cell-based; settings: inhibitor 10 μM
Method: Primary mouse keratinocytes were cultured following previous protocol (Chen et al. J. Biol. Chem. 2016, 291, 10252-10262). The epidermis from the back skin of newborn WT or keratinocyte-Trpv4 cKO mice was separated from the dermis by floating the skin on 0.25% trypsin (Gibco, Gaithersburg, MD) for 14-18 h at 4° C. Basal keratinocytes were separated from the cornified sheets by filtration through a […] cell strainer. Keratinocytes were plated on collagen I-coated dishes or glass coverslips and grown in EME media (Gibco, Gaithersburg, MD) containing 8% chelex (Bio-rad, Hercules, CA)-treated FBS with the final Ca^2+ adjusted to 0.05 mM, bovine pituitary extract (50 μg/mL), epidermal growth factor (5 ng/mL), and lx antibiotics/antimycotics (Gibco, Gaithersburg, MD) in a humidified incubator with 5% CO2 at 37° C. for 5-7 days until use. To knockdown Trpv4 in isolated keratinocytes from newborn keratinocyte-Trpv4 cKO mice, cells were treated with 4-OH tamoxifen at 500 nM for 72 h.
Western Blot. Routine procedures were followed (Chen et al. J. Biol. Chem. 2016, 291, 10252-10262, Chen et al. Pain 2014, 155, 2662-2672). […] Immunoblot band intensity was quantitated using the software Image J and ERK served as a control for pERK expression.

T1 sequence (Q9HBA0 whole entry R746G): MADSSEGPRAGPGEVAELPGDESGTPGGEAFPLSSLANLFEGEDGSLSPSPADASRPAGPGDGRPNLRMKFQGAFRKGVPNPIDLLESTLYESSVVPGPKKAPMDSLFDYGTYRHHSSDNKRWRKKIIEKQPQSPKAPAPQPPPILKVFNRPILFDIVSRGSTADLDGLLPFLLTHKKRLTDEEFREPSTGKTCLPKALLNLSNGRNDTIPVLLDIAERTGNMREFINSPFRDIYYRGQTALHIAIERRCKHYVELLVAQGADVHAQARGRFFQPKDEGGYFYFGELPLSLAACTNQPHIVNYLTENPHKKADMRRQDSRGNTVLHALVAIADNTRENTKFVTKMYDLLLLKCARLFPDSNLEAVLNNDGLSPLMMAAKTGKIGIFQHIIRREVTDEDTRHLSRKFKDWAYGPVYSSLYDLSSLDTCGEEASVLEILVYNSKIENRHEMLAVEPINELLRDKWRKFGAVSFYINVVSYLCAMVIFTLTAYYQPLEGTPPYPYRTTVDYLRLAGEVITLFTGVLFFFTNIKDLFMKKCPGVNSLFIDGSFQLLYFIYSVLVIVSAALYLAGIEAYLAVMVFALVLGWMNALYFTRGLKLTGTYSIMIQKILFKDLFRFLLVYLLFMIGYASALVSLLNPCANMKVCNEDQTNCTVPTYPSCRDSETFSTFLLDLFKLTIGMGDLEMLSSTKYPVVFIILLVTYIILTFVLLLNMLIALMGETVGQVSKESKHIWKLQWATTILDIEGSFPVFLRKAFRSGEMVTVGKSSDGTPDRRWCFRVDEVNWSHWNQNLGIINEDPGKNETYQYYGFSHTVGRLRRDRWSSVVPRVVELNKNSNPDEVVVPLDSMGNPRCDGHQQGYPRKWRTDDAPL

Compound | average activation of currents, normalized to 1 μM GSK101 [1] [%] | effect on LPC-increased pERK expression [2]
LPC 18:1 | 13±4 | 
Cc1c(C(=O)Nc2cccc(C(F)(F)F)c2)cc(-c2ccccc2)n1CCCN1CCOCC1 [HC067047] |  | eliminated the increase; also recorded: abolished
